Results on 5 compounds are retold here after patent US20110319451A1, “5-Ht6 Receptor and Modulators Thereof for the Treatment of Insulin-Related Disorders” (priority 2008, published 2011).

One data set concerns the target 5-HT6 receptor (Homo sapiens, UniProt P50406). The note with it: cited from earlier work.
For data set [1], the system named is normal lean and DIO female rats. The note with it: cited from earlier work.
Another data set has as its system female DIO rat model. The note with it: cited from earlier work.
The subject of a further data set is DIO female rats. The note with it: cited from earlier work; for cumulative weekly food intake: DIO female rats; for weight-loss versus control: after 28 days of administration, DIO rats.
Data set [2] concerns the target cloned human 5-HT6 subtype (Homo sapiens, UniProt P50406). The note with it: cited from earlier work.
The next data set deals with rat 5-HT6 receptor (Rattus norvegicus, UniProt P31388). The note with it: cited from earlier work.
For data set [3] the following is noted: 30 mg/kg i.p., daily for 3 days, growing rats; cited from earlier work.
The subject of data set [4] is C57bl/6 male mice. The data set is described as follows: plasma glucose levels (hypoglycemia) in fasted mice. The note with it: 10 mpk or 30 mpk oral, 0-120 minutes post-dosing, FIG. 7. The data set is classed as in vivo, mouse. Here is the method: Plasma glucose levels were determined at 0 minute (right before dosing), and 30, 60, 90, and 120 minutes post-dosing using blood (˜5 μl) collected from tail nick and a glucose meter. Glycemic changes were graphed based on data from 6 mice and given in mean values +/−SEM.

Data set [5] deals with db/db mutant diabetic mice. The data set is described as follows: oGTT in diabetic db/db mice. It counts as in vivo, mouse. The note with it: 3.3, 10 or 30 mpk oral, glucose bolus 2 gram/kg, FIG. 8. The procedure:
Thirty minutes later, a glucose bolus (2 gram/kg) was then delivered per orally. Plasma glucose levels were determined at indicated time points over a two hour period using blood (˜5 μl) collected from tail nick and a glucose meter. Glycemic excursion curve was graphed based on data from 6 mice and given in mean values +/−SEM.

The subject of the next data set is C57/Bl6 mice. Briefly: oral glucose tolerance test (oGTT) in C57/Bl6 mice. It counts as in vivo, mouse. The note with it: 1, 3.3 or 10 mpk oral, 30 min before glucose bolus 3 gram/kg, FIG. 5. The procedure:
Thirty minutes later, a glucose bolus (3 gram/kg) was then delivered per orally. Plasma glucose levels were determined at indicated time points over a two hour period using blood (˜5 μl) collected from tail nick and a glucose meter. Glycemic excursion curve was graphed based on data from 6 mice and given in mean values +/−SEM (FIG. 5 upper left panel).

In data set [6] the test system is C57bl/6 male mice. Briefly: insulin release in response to a glucose bolus in mice. The note with it: 10 mpk oral; 5, 10 and 20 minutes after glucose bolus 3 g/kg, FIG. 5. It counts as in vivo, mouse. The procedure:
C57bl/6 male mice (8 weeks of age) were fasted for 18 hours, and randomly assigned into eight groups with n=6 for each group. Mice were administered per orally with vehicle (20% HPCD) or with 10 mpk EMD 386088. After 30 minutes, a glucose bolus of 3 g/kg was administered orally. Blood was collected in heparinated blood collection tubes at 0 minute (no glucose bolus), 5 minutes, 10 minutes, and 20 minutes after glucose bolus. Plasma samples were obtained via centrifugation at 500×g for 20 minutes and assayed for insulin using an Ultra Sensitive Insulin ELISA kit (Crystal Chem. Inc., Downers Grove, Ill.).

The structures appear in SMILES notation.

rat 5-HT6 receptor, sequence (P31388 whole entry): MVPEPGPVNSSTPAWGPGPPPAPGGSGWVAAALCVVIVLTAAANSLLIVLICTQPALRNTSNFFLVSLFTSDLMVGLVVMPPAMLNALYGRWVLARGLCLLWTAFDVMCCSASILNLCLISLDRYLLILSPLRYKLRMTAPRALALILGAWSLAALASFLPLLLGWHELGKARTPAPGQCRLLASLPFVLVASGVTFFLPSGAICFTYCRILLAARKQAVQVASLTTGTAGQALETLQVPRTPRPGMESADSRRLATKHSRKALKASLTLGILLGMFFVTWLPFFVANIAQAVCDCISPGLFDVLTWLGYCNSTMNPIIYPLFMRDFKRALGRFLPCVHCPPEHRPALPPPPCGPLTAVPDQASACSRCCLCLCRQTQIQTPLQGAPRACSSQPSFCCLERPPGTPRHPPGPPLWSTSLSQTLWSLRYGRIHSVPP
cloned human 5-HT6 subtype, sequence (P50406 whole entry): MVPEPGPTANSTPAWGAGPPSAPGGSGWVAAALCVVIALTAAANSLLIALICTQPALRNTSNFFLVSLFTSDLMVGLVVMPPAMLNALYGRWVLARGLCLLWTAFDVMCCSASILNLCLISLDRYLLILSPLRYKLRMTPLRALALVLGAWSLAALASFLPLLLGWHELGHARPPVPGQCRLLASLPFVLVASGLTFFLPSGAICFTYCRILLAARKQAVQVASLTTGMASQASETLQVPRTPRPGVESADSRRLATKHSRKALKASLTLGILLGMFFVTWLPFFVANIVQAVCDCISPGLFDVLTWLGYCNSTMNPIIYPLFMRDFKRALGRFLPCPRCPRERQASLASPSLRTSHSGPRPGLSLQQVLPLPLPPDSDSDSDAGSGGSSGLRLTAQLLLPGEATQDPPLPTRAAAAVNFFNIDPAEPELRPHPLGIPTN
5-HT6 receptor, sequence (P50406 whole entry): as above

As for `COc1cc(Cl)cc(C(C)Nc2cc(N3CCNCC3)ccc2S(C)(=O)=O)c1OC.Cl` (centres unmarked) [PRX-07034], the Ki (as a rule, a dissociation constant, usually derived from enzyme kinetics or from competition with a known ligand) on 5-HT6 receptor was 4 nM. Further, in [1] (acute studies, normal lean and DIO female rats), the food intake result is reported as “inhibited food intake”. Also, the aversive effect entry in data set [1] (rat, in vivo) is given as “no aversive effect”. The “food intake and adiposity” value in the data set with female DIO rat model was “reduce food intake and adiposity”.
In the case of `CN(C)CCc1c[nH]c2ccc(NS(=O)(=O)c3ccc4c(Cl)cccc4c3)cc12` [Compound E-6837], in the data set with DIO female rats, the “cumulative weekly food intake” value was “significantly decreased consumption during the first, second and third weeks of treatment”; the weight-loss versus control is 15.7%. In the data set on DIO female rats (rat, in vivo), the “body composition of weight-loss” value is given as “selective reduction in body fat with no changes in either water or protein content”. The “functionality at cloned human 5-HT6 subtype” value in data set [2] is on record as “full agonist”. Besides, the “food intake and adiposity” value with female DIO rat model is “reduce food intake and adiposity”. Also, on rat 5-HT6 receptor, the “functionality at rat 5-HT6 receptor” value was “partial agonist”.
As for `CNc1cc(NS(=O)(=O)c2ccc(N)cc2)nc(NC)n1` [Ro 04-6790], the body weight-gain entry in [3] is recorded as “significantly attenuated body weight-gain”.
For the compound `CC(C)CC(N(C)C)C1(c2ccc(Cl)cc2)CCC1` (centres unmarked) [sibutramine], in the data set on DIO female rats, the “cumulative weekly food intake” value is listed as “significantly reduced food intake only during the first week” and the weight-loss versus control is on record as 11.0%.
Turning to `Cc1[nH]c2ccc(Cl)cc2c1C1=CCNCC1` [Compound A, 5-Chloro-2-methyl-3-(1,2,3,6-tetrahydro-pyridin-4-yl)-1H-indole], in the data set on C57bl/6 male mice [4], the “hypoglycemia (plasma glucose levels) compared to control” value was “did not cause hypoglycemia”. For the same compound, the “plasma glucose concentration over time in oGTT compared to control” value in [5] was “dose dependent decrease in plasma glucose concentration”. In the data set with C57/Bl6 mice, the “glucose excursion in oGTT” value is on record as “improved glucose excursion in a dose-dependent fashion”. Further, the “insulin release compared to vehicle” value with C57bl/6 male mice [6] is reported as “increased insulin release”.
